Laboratory results reported in publication PMC5218480 (PLoS ONE, 2017).

Test system: MV-4-11 cells
Assay: Gene expression microarray analysis (Affymetrix PrimeView) and GSEA
Format: cell-based, human
Design: RFU PODN (11730768_x_at) / Fold change /veh PODN (11730768_x_at) / RFU LINC00158 (11744669_a_at) / Fold change /veh LINC00158 (11744669_a_at) / RFU DUSP10 (11751237_a_at) / Fold change /veh DUSP10 (11751237_a_at) / RFU ID3 (11757404_x_at) / Fold change /veh ID3 (11757404_x_at) / RFU PLEKHG5 (11737974_s_at) / Fold change /veh PLEKHG5 (11737974_s_at) / RFU LRRC4B (11730491_at) / Fold change /veh LRRC4B (11730491_at) / RFU GIMAP4 (11747438_a_at) / Fold change /veh GIMAP4 (11747438_a_at) / RFU KRT8 (11758183_x_at) / Fold change /veh KRT8 (11758183_x_at) / RFU CNN1 (11734310_a_at) / Fold change /veh CNN1 (11734310_a_at) / RFU VPS37D (11726825_at) / Fold change /veh VPS37D (11726825_at) / RFU C10orf10 (11716522_x_at) / Fold change /veh C10orf10 (11716522_x_at) / RFU KIR2DL2 /// KIR2DL4 /// KIR2DL5A /// KIR2DL5B /// KIR2DS1 /// KIR2DS2 /// KIR2DS3 /// KIR2DS4 /// KIR3DL3 /// KIR3DL3 /// KIR3DS1 (11738374_at) / Fold change /veh KIR2DL2 /// KIR2DL4 /// KIR2DL5A /// KIR2DL5B /// KIR2DS1 /// KIR2DS2 /// KIR2DS3 /// KIR2DS4 /// KIR3DL3 /// KIR3DL3 /// KIR3DS1 (11738374_at) / RFU C1QL1 (11718748_at) / Fold change /veh C1QL1 (11718748_at) / RFU TMPRSS4 (11747572_a_at) / Fold change /veh TMPRSS4 (11747572_a_at) / RFU HAMP (11756126_x_at) / Fold change /veh HAMP (11756126_x_at) / RFU RNFT2 (11725882_a_at) / Fold change /veh RNFT2 (11725882_a_at) / RFU NR4A2 (11747474_a_at) / Fold change /veh NR4A2 (11747474_a_at) / RFU ABCC12 (11746883_a_at) / Fold change /veh ABCC12 (11746883_a_at) / RFU TMEM136 (11760407_x_at) / Fold change /veh TMEM136 (11760407_x_at) / RFU CLDN22 /// WWC2 (11732394_at) / Fold change /veh CLDN22 /// WWC2 (11732394_at) / RFU HLA-DPB1 (11760878_x_at) / Fold change /veh HLA-DPB1 (11760878_x_at) / RFU SPINT1 (11716480_a_at) / Fold change /veh SPINT1 (11716480_a_at) / RFU GAP43 (11754022_s_at) / Fold change /veh GAP43 (11754022_s_at) / RFU A4GNT (11735810_at) / Fold change /veh A4GNT (11735810_at) / RFU PRB3 (11715151_x_at) / Fold change /veh PRB3 (11715151_x_at) / RFU TUBB4B (11761932_at) / Fold change /veh TUBB4B (11761932_at) / RFU CAPN14 (11732068_a_at) / Fold change /veh CAPN14 (11732068_a_at) / RFU TMCC2 (11721928_a_at) / Fold change /veh TMCC2 (11721928_a_at) / RFU IRGQ (11745062_a_at) / Fold change /veh IRGQ (11745062_a_at) / RFU FAM174B (11720279_a_at) / Fold change /veh FAM174B (11720279_a_at) / RFU TMPRSS4 (11748680_a_at) / Fold change /veh TMPRSS4 (11748680_a_at) / RFU FAM212B (11763350_a_at) / Fold change /veh FAM212B (11763350_a_at) / RFU PLEKHG5 (11743358_a_at) / Fold change /veh PLEKHG5 (11743358_a_at) / RFU ZSCAN30 (11745921_a_at) / Fold change /veh ZSCAN30 (11745921_a_at) / RFU CMKLR1 (11741424_a_at) / Fold change /veh CMKLR1 (11741424_a_at) / RFU LOC101060620 /// MAPK8IP1 (11723275_at) / Fold change /veh LOC101060620 /// MAPK8IP1 (11723275_at) / RFU SPTSSB (11747773_x_at) / Fold change /veh SPTSSB (11747773_x_at) / RFU PRSS12 (11739890_at) / Fold change /veh PRSS12 (11739890_at) / RFU BIN1 (11741810_x_at) / Fold change /veh BIN1 (11741810_x_at) / RFU WNT11 (11732464_a_at) / Fold change /veh WNT11 (11732464_a_at) / RFU C10orf10 (11716521_a_at) / Fold change /veh C10orf10 (11716521_a_at) / RFU C5orf56 (11738089_at) / Fold change /veh C5orf56 (11738089_at) / RFU CYB561 (11721691_x_at) / Fold change /veh CYB561 (11721691_x_at) / RFU ANKRD19P (11752326_a_at) / Fold change /veh ANKRD19P (11752326_a_at) / RFU OR2T12 /// OR2T33 /// OR2T8 (11738714_s_at) / Fold change /veh OR2T12 /// OR2T33 /// OR2T8 (11738714_s_at) / RFU VCAN (11748164_a_at) / Fold change /veh VCAN (11748164_a_at) / RFU JSRP1 (11732532_at) / Fold change /veh JSRP1 (11732532_at) / RFU KRTAP10-11 (11738290_x_at) / Fold change /veh KRTAP10-11 (11738290_x_at) / RFU MYO3A (11730013_a_at) / Fold change /veh MYO3A (11730013_a_at) / RFU EBF3 (11725865_a_at) / Fold change /veh EBF3 (11725865_a_at) / RFU CAMK2N1 (11719241_x_at) / Fold change /veh CAMK2N1 (11719241_x_at) / RFU C5orf56 (11738088_a_at) / Fold change /veh C5orf56 (11738088_a_at) / RFU OLFML3 (11715873_a_at) / Fold change /veh OLFML3 (11715873_a_at) / RFU LOC100653217 /// NTM (11731650_a_at) / Fold change /veh LOC100653217 /// NTM (11731650_a_at) / RFU MAPK11 (11762145_a_at) / Fold change /veh MAPK11 (11762145_a_at) / RFU FIZ1 (11724087_x_at) / Fold change /veh FIZ1 (11724087_x_at) / RFU OASL (11726364_x_at) / Fold change /veh OASL (11726364_x_at) / RFU SOX15 (11748057_x_at) / Fold change /veh SOX15 (11748057_x_at) / RFU CD79A (11719716_a_at) / Fold change /veh CD79A (11719716_a_at) / RFU HIST1H1D (11736915_at) / Fold change /veh HIST1H1D (11736915_at) / RFU CASKIN2 (11723855_a_at) / Fold change /veh CASKIN2 (11723855_a_at) / RFU LOC730098 (11760151_x_at) / Fold change /veh LOC730098 (11760151_x_at) / RFU OR4N2 (11742367_at) / Fold change /veh OR4N2 (11742367_at) / RFU PRRT2 (11749266_a_at) / Fold change /veh PRRT2 (11749266_a_at) / RFU SNX32 (11753110_a_at) / Fold change /veh SNX32 (11753110_a_at) / RFU CDHR5 (11726645_a_at) / Fold change /veh CDHR5 (11726645_a_at) / RFU RCAN1 (11760418_a_at) / Fold change /veh RCAN1 (11760418_a_at) / RFU FAM167A (11723789_a_at) / Fold change /veh FAM167A (11723789_a_at) / RFU FAM26E (11764081_at) / Fold change /veh FAM26E (11764081_at) / RFU ISYNA1 (11749810_s_at) / Fold change /veh ISYNA1 (11749810_s_at) / RFU ACY1 (11761880_at) / Fold change /veh ACY1 (11761880_at) / RFU 11764098_at / Fold change /veh 11764098_at / RFU SAMD14 (11745864_x_at) / Fold change /veh SAMD14 (11745864_x_at) / RFU NPB (11741838_a_at) / Fold change /veh NPB (11741838_a_at) / RFU TMPRSS6 (11731388_a_at) / Fold change /veh TMPRSS6 (11731388_a_at) / RFU KRTAP10-2 (11738614_at) / Fold change /veh KRTAP10-2 (11738614_at) / RFU ARHGAP8 /// PRR5-ARHGAP8 (11727945_x_at) / Fold change /veh ARHGAP8 /// PRR5-ARHGAP8 (11727945_x_at) / RFU KRTAP5-7 /// NADSYN1 (11734609_at) / Fold change /veh KRTAP5-7 /// NADSYN1 (11734609_at) / RFU RASL12 (11751679_a_at) / Fold change /veh RASL12 (11751679_a_at) / RFU CDKN2B (11736163_a_at) / Fold change /veh CDKN2B (11736163_a_at) / RFU PRF1 (11729649_at) / Fold change /veh PRF1 (11729649_at) / RFU, ZNF638 /// ZNF638-IT1 / Fold change vs veh, ZNF638 /// ZNF638-IT1 / RFU, PANK3 / Fold change vs veh, PANK3 / RFU, SH3YL1 / Fold change vs veh, SH3YL1 / RFU, ZEB2 / Fold change vs veh, ZEB2 / RFU, NRIP1 / Fold change vs veh, NRIP1 / RFU, PTTG1IP / Fold change vs veh, PTTG1IP / RFU, CAPN2 / Fold change vs veh, CAPN2 / RFU, MED14 / Fold change vs veh, MED14 / RFU, SNORA58 / Fold change vs veh, SNORA58 / RFU, C1orf63 / Fold change vs veh, C1orf63 / RFU, LRRFIP1 / Fold change vs veh, LRRFIP1 / RFU, NDUFAF7 / Fold change vs veh, NDUFAF7 / RFU, SLC12A2 / Fold change vs veh, SLC12A2 / RFU, IBTK / Fold change vs veh, IBTK / RFU, ESF1 / Fold change vs veh, ESF1 / Fold change vs veh, TMEM50B / RFU, TAOK1 / Fold change vs veh, TAOK1 / RFU, ACBD3 / Fold change vs veh, ACBD3 / RFU, TMA16 / Fold change vs veh, TMA16 / RFU, RWDD3 / Fold change vs veh, RWDD3 / RFU, BCAT1 / Fold change vs veh, BCAT1 / RFU, EDEM3 / Fold change vs veh, EDEM3 / RFU, TMEM33 / Fold change vs veh, TMEM33 / RFU, WDR75 / Fold change vs veh, WDR75 / RFU, AHCTF1 / Fold change vs veh, AHCTF1 / RFU, TFRC / Fold change vs veh, TFRC / RFU, ZDHHC17 / Fold change vs veh, ZDHHC17 / RFU, NOM1 / Fold change vs veh, NOM1 / RFU, ARL8B / Fold change vs veh, ARL8B / RFU, ZBTB11 / Fold change vs veh, ZBTB11 / RFU, TAMM41 / Fold change vs veh, TAMM41 / RFU, KIAA1704 /// LOC100996395 / Fold change vs veh, KIAA1704 /// LOC100996395 / RFU, ING1 / Fold change vs veh, ING1 / RFU, TRMT61B / Fold change vs veh, TRMT61B / RFU, FUBP3 / Fold change vs veh, FUBP3 / RFU, TP53 / Fold change vs veh, TP53 / RFU, TNKS2 / Fold change vs veh, TNKS2 / RFU, ZFP14 / Fold change vs veh, ZFP14 / RFU, ACTR2 / Fold change vs veh, ACTR2 / RFU, PPP3R1 / Fold change vs veh, PPP3R1 / RFU, PIK3R1 / Fold change vs veh, PIK3R1 / RFU, HNRNPA1 / Fold change vs veh, HNRNPA1 / RFU, RNF170 / Fold change vs veh, RNF170 / RFU, ZNF28 / Fold change vs veh, ZNF28 / RFU, RNGTT / Fold change vs veh, RNGTT / RFU, OGT / Fold change vs veh, OGT / RFU, BRD1 / Fold change vs veh, BRD1 / RFU, MARS / Fold change vs veh, MARS / RFU, ZNF655 / Fold change vs veh, ZNF655 / RFU, FAHD1 / Fold change vs veh, FAHD1 / RFU, BDP1 / Fold change vs veh, BDP1 / RFU, LRRCC1 / Fold change vs veh, LRRCC1 / RFU, ARID1A / Fold change vs veh, ARID1A / RFU, ZNF146 / Fold change vs veh, ZNF146 / RFU, ZNF330 / Fold change vs veh, ZNF330 / RFU, GPN3 / Fold change vs veh, GPN3 / RFU, C9orf123 / Fold change vs veh, C9orf123 / RFU, N4BP2L2 / Fold change vs veh, N4BP2L2 / RFU, ARFIP1 / Fold change vs veh, ARFIP1 / RFU, FAM179B / Fold change vs veh, FAM179B / RFU, BCL10 / Fold change vs veh, BCL10 / RFU, UHRF1BP1L / Fold change vs veh, UHRF1BP1L / RFU, BET1 / Fold change vs veh, BET1 / RFU, CNOT2 / Fold change vs veh, CNOT2 / RFU, ZNF268 / Fold change vs veh, ZNF268 / Fold change vs veh, ZNF507 / RFU, DGCR2 / Fold change vs veh, DGCR2 / RFU, WDSUB1 / Fold change vs veh, WDSUB1 / Fold change vs veh, HSP90B1 /// MIR3652 / RFU, ADSS / Fold change vs veh, ADSS / RFU, GK / Fold change vs veh, GK / RFU, ZNF148 / Fold change vs veh, ZNF148 / RFU, TAF9 / Fold change vs veh, TAF9 / RFU, SLC1A5 / Fold change vs veh, SLC1A5 / RFU, SLMO2 / Fold change vs veh, SLMO2 / RFU, ABCC4 / Fold change vs veh, ABCC4 / RFU, LOC101060439 /// RAP1B / Fold change vs veh, LOC101060439 /// RAP1B / RFU, RFX7 / Fold change vs veh, RFX7 / RFU, GTPBP10 / Fold change vs veh, GTPBP10 / RFU, CNEP1R1 / Fold change vs veh, CNEP1R1 / RFU, BIVM-ERCC5 /// ERCC5 / Fold change vs veh, BIVM-ERCC5 /// ERCC5 / RFU, ILF3 / Fold change vs veh, ILF3 / RFU 11762660_at / Fold change /veh 11762660_at / RFU VCAN (11757783_s_at) / Fold change /veh VCAN (11757783_s_at) / RFU DDX43 (11728927_at) / Fold change /veh DDX43 (11728927_at) / RFU KRT8 (11758188_x_at) / Fold change /veh KRT8 (11758188_x_at) / RFU NKD1 (11759106_at) / Fold change /veh NKD1 (11759106_at) / RFU SRD5A1 (11742802_a_at) / Fold change /veh SRD5A1 (11742802_a_at) / RFU TPSAB1 /// TPSB2 (11721975_s_at) / Fold change /veh TPSAB1 /// TPSB2 (11721975_s_at) / RFU GSTM3 (11746129_a_at) / Fold change /veh GSTM3 (11746129_a_at) / RFU IL23R (11737362_x_at) / Fold change /veh IL23R (11737362_x_at) / RFU TMEM51 (11727254_a_at) / Fold change /veh TMEM51 (11727254_a_at) / RFU PIWIL2 (11732686_x_at) / Fold change /veh PIWIL2 (11732686_x_at) / RFU ORM1 (11744905_x_at) / Fold change /veh ORM1 (11744905_x_at) / RFU CCDC152 (11743942_at) / Fold change /veh CCDC152 (11743942_at) / RFU ECM1 (11717891_a_at) / Fold change /veh ECM1 (11717891_a_at) / RFU IL23R (11748794_a_at) / Fold change /veh IL23R (11748794_a_at) / RFU TNFAIP8L3 (11732012_x_at) / Fold change /veh TNFAIP8L3 (11732012_x_at) / RFU MBOAT4 (11741988_at) / Fold change /veh MBOAT4 (11741988_at) / RFU 11764193_at / Fold change /veh 11764193_at / RFU TMEM53 (11763286_at) / Fold change /veh TMEM53 (11763286_at) / RFU MAGEB2 (11727129_at) / Fold change /veh MAGEB2 (11727129_at) / RFU TMEM200A (11744735_a_at) / Fold change /veh TMEM200A (11744735_a_at) / RFU CCDC152 (11751479_a_at) / Fold change /veh CCDC152 (11751479_a_at) / RFU FAM211A (11726209_a_at) / Fold change /veh FAM211A (11726209_a_at) / RFU RGS16 (11746705_a_at) / Fold change /veh RGS16 (11746705_a_at) / RFU VCAN (11755009_s_at) / Fold change /veh VCAN (11755009_s_at) / RFU RHOB (11743442_s_at) / Fold change /veh RHOB (11743442_s_at) / RFU RGS16 (11720943_a_at) / Fold change /veh RGS16 (11720943_a_at) / RFU RGS16 (11720944_at) / Fold change /veh RGS16 (11720944_at) / RFU, VPS4B / Fold change vs veh, VPS4B / RFU, CREB1 / Fold change vs veh, CREB1 / RFU, DNAJC13 / Fold change vs veh, DNAJC13 / RFU, GNAQ / Fold change vs veh, GNAQ / RFU, CDK5R1 / Fold change vs veh, CDK5R1 / RFU, ZRANB3 / Fold change vs veh, ZRANB3 / RFU, CUL4A / Fold change vs veh, CUL4A / RFU, CCNY / Fold change vs veh, CCNY / RFU, UFL1 / Fold change vs veh, UFL1 / RFU, COG3 / Fold change vs veh, COG3 / RFU, DIAPH2 / Fold change vs veh, DIAPH2 / RFU, SKA2 / Fold change vs veh, SKA2 / RFU, AFF3 / Fold change vs veh, AFF3 / RFU, LMF1 / Fold change vs veh, LMF1 / RFU, IPO11 / Fold change vs veh, IPO11 / RFU, DFFB / Fold change vs veh, DFFB / RFU, FOXP1 / Fold change vs veh, FOXP1 / RFU, CARD8 / Fold change vs veh, CARD8 / RFU, STRN3 / Fold change vs veh, STRN3 / RFU, ADK / Fold change vs veh, ADK / RFU, RASSF2 / Fold change vs veh, RASSF2 / RFU, WIPF1 / Fold change vs veh, WIPF1 / RFU, LARP1B / Fold change vs veh, LARP1B / RFU, RASA1 / Fold change vs veh, RASA1 / RFU, RB1 / Fold change vs veh, RB1 / RFU, PPFIA1 / Fold change vs veh, PPFIA1 / RFU, MAT2A / Fold change vs veh, MAT2A / RFU, CCT5 / Fold change vs veh, CCT5 / RFU, WDR92 / Fold change vs veh, WDR92 / RFU, CUX1 / Fold change vs veh, CUX1 / RFU, TTC7A / Fold change vs veh, TTC7A / RFU, TMEM135 / Fold change vs veh, TMEM135 / RFU, DEPTOR / Fold change vs veh, DEPTOR / RFU, CPM / Fold change vs veh, CPM / RFU, DNAJB6 / Fold change vs veh, DNAJB6 / RFU, CACNA2D3 / Fold change vs veh, CACNA2D3 / RFU, DTX4 / Fold change vs veh, DTX4 / RFU, TFCP2 / Fold change vs veh, TFCP2 / RFU, GMCL1 /// GMCL1P1 / Fold change vs veh, GMCL1 /// GMCL1P1 / RFU, AEBP2 / Fold change vs veh, AEBP2 / RFU, SNHG1 /// SNORD22 /// SNORD25 /// SNORD26 /// SNORD27 /// SNORD28 /// SNORD29 /// SNORD31 / Fold change vs veh, SNHG1 /// SNORD22 /// SNORD25 /// SNORD26 /// SNORD27 /// SNORD28 /// SNORD29 /// SNORD31 / Fold change (Aza/veh), C12orf56 (ProbeSet 11735607_a_at) / Fold change (ACY-1035/veh), C12orf56 (ProbeSet 11735607_a_at) / Fold change (Aza/veh), FGFR1OP (ProbeSet 11751329_s_at) / Fold change (ACY-1035/veh), FGFR1OP (ProbeSet 11751329_s_at) / Fold change (Aza/veh), VPS36 (ProbeSet 11739960_a_at) / Fold change (ACY-1035/veh), VPS36 (ProbeSet 11739960_a_at) / RFU SYPL1 (11715823_x_at) / Fold change /veh SYPL1 (11715823_x_at) / RFU IGFBP7 (11715501_s_at) / Fold change /veh IGFBP7 (11715501_s_at) / RFU REEP3 (11722064_at) / Fold change /veh REEP3 (11722064_at) / RFU IGLL1 (11728026_x_at) / Fold change /veh IGLL1 (11728026_x_at): dose or concentration left out as unconfirmed
Details: MV-4-11 cells, 48 hours

## Nc1ccc(-c2cccs2)cc1NC(=O)c1ccc2c(c1)cc(C1CC1)n2CCN1CCOCC1 [ACY-1035]
  Fold change /veh EBF3 (11725865_a_at): 1.09
